Data: US20210355532A1, “METHODS AND REAGENTS FOR DETECTING AND ASSESSING GENOTOXICITY” (TwinStrand Biosciences, Inc., priority 2018, published 2021)
“Also recorded” adds a separate entry of the source.

What was measured:
Type in all cases: in vivo, mouse
[1] = tested on: BigBlue® transgenic C57BL/6 male mice; assay: Duplex Sequencing mutant frequency and spectrum in BigBlue transgenic mice (cII transgene and endogenous genes)
Experimental: Tissues were collected and frozen on study day 31. Liver and bone marrow were analyzed for mutants. DNA was isolated and mutants analyzed for cII mutant plaques using RecoverEase and Transpack methods described by Agilent Technologies. Duplex Sequencing was used to sequence cII and other endogenous genes for mutations in liver and bone marrow.
Genes evaluated and criteria used to select genes are as follows: (1) Polr1c (RNA polymerase), which is ubiquitously transcribed in all tissue types; (2) Rho (Rhodopsin), which is not expressed in any tissue besides retina; (3) Hp (Haptoglobin), which is highly expressed in liver, but almost nowhere else; (4) Ctnnb1 (Beta-catenin), which is most commonly mutated gene in human hepatocellular carcinoma; and (5) CII: 360 bp transgenic reporter gene present in ˜80 copies in BigBlue® mice.
FIGS. 3A-3D are box plot graphs showing mutant frequencies calculated for Duplex Sequencing (FIGS. 3A and 3B) and the BigBlue® cII plaque assay (FIGS. 3C and 3D) in liver and bone marrow following mutagen treatment as described above. MF for Duplex Sequencing was based on total mutants per duplex base-pair sequenced (n=5 mice/group). MF for BigBlue® was calculated as number of mutant plaques relative to number of […] (n=6 mice/group).

[2] = tested on: Tg.rasH2 mice; assay: Duplex Sequencing mutant frequency and spectrum in Tg.rasH2 mice dosed with urethane; conditions: for Mutation Frequency: urethane day 1,3,5, sacrifice day 29, Duplex Sequencing
From the text: (§1) In this example, the impact of a urethane is examined in different mouse tissue types (lung, spleen, blood) in an FDA-approved cancer-predisposed mouse model: Tg.rasH2 (Saitoh et al. Oncogene 1990. PMID 2202951). This mouse contains ˜3 tandem copies of human Hras with an activating enhancer mutation to boost expression on one hemizygous allele. These mice are predisposed to splenic angiosarcomas and lung adenocarcinomas, and are routinely used for 6 month carcinogenicity studies to substitute for 2 year native animal studies. Tumors found in the mice have usually acquired activating mutations in one copy of the human Hras protooncogene. In this addition to the 4 native mouse genes (Rho, Hp, Ctnnb1, Polr1c), the native mouse Hras and human Hras transgene are also analyzed in this example.
(§2) In this example, Tg.rasH2 mice (n=5/group) were dosed with vehicle or a carcinogenic dose of urethane (day 1,3,5) and sacrificed on day 29 for mutation detection by Duplex Sequencing in target tissues (lung, spleen) and whole blood. The endogenous genes (Rho, Hp, Ctnnb1, Polr1c) and the native mouse and human Hras (trans)genes were also sequenced.
FIG. 8 is a bar graph showing mutant frequency (MF) of lung, spleen and blood samples for control and experimental animals subjected to urethane. In this analysis, every unique variant detected was counted as one mutation, which were summed per sample. This was divided by the total number of Duplex Bases sequenced and across the entire capture region. The number of events is noted above each sample. In total, across all 30 samples, 3,966,947,832 Duplex Sequenced base pairs were generated.
Referring to FIG. 9 and Table 1 together, differences between vehicle control (VC) and treatment groups were highly significant. A Welch's t-test (for unequal variances) was used to determine the significance of the mutagen treated tissue's mutant frequency over that of the control for that tissue. The slightly wider confidence intervals with blood reflects a lower average depth of sequencing in the blood VC samples in this particular example. It is anticipated that this can be corrected using the methods described herein.

[3] = tested on: human HRAS transgene codon 61; assay: Duplex Sequencing detection of clonal oncogenic mutations in human HRAS transgene of Tg.rasH2 mice; conditions: day 29
From the text: as §1, §2
FIG. 15A is a graph illustrating SNVs plotted over the genomic intervals for the exons captured from the Ras family of genes, including the human transgenic loci, in the Tg-rasH2 mouse model. Singlets are mutations found in a single molecule. Multiplets are an identical mutation identified within multiple molecules within the same sampler and may represent a clonal expansion event. The height of each point corresponds to the variant allele frequency (VAF) of each SNV, with the with the size of the point corresponds to the for multiplet observations only. The location and relative frequency of Ras family human cancer mutational hotspots in COSMIC are indicated below each gene. FIG. 15B is a graph illustrating single nucleotide variants (SNVs) aligning to exon 3 of the human HRAS transgene. Highlighted is the center residue in codon number 61 in exon 3 of human HRAS, the most common HRAS cancer-driving hotspot.

| Structure (SMILES) | MF in 4 endogenous genes (Polr1c, rhodopsin, haptoglobin, beta-catenin) ([1]; BigBlue mice, liver and bone marrow) | Mutation spectrum, distinguishing mutation types ([1]; aggregated across all genes, all tissues, unsupervised cluster analysis) | Mutation load relative to controls ([1]; bone marrow and liver, cII transgene, BigBlue mice, study day 31) | Trinucleotide context hotspots (most vulnerable contexts) ([1]; trinucleotide spectra, BigBlue mice) | Fold Increase of mutation frequency over vehicle control ([2]; Blood) | Mutation Frequency ([2]; Blood, Tg.rasH2 mice) | Fold Increase of mutation frequency over vehicle control ([2]; Lung) | Mutation Frequency ([2]; Lung, Tg.rasH2 mice) | Fold Increase of mutation frequency over vehicle control ([2]; Spleen) | Mutation Frequency ([2]; Spleen, Tg.rasH2 mice) | Trinucleotide (triplet) mutation spectrum, predominant mutation ([2]; lung, spleen, blood, Tg.rasH2 mice) | Variant allele frequencies of HRAS codon 61 mutation ([3]; four out of five treated lung samples) | Fraction of treated samples with T>A transversions at human oncogenic Hras codon 61 hotspot ([3]; lung samples) | Fraction of treated samples with T>A transversions at human oncogenic Hras codon 61 hotspot ([3]; splenic samples) |
| --- | --- | --- | --- | --- | --- | --- | --- | --- | --- | --- | --- | --- | --- | --- |
| CCN(N=O)C(N)=O [ENU, N-ethyl-N-nitrosourea] | increased | preponderance of T→C, T→A, and C→T mutations | significantly increased relative to controls | GTS and GTG and GTC | – | – | – | – | – | – | – | – | – | – |
| CCOC(N)=O [Urethane, urethane] | – | – | – | – | 2.2x | 2.39e−07 | 7.5x | 5.04e−07 | 3.3x | 2.73e−07 | T:A→A:T within the motif “NTG” is shown as the most common mutation; also recorded: strong propensity for T→A and T→C mutations within the context of “NTG” | 0.1%-1.8% | ⅘ | ⅕ |
